Assay [1] deals with human constitutive proteasome (Beta5) (Homo sapiens (Human), UniProt P28074). Description: Determination of Beta5 activity (fluorescence intensity assay, Suc-LLVY-AMC). The assay is classed as biochemical. As for the experimental part: Determination of Beta5 Activity:
Measurement of Beta5 inhibition is performed in 384 well format based on fluorescence intensity assay.
(§1) Purified human constitutive proteasome (1.25 nM) and serial diluted compounds in DMSO (range of concentrations from 30 μM to 15 pM) or controls are incubated for 20 minutes or 120 minutes (long incubation) at 25° C. in assay buffer containing 50 mM Tris pH 7.4, 0.03% SDS, 1 mM EDTA and 1% DMSO. The reaction is initiated by the addition of the fluorogenic peptide substrate, Suc-LLVY-AMC (Bachem 1-1395), at a concentration of 40 μM. After 60 minutes of incubation at 37° C., fluorescence intensity is measured at λex=350 nm and λem=450 nm with a fluorescence reader (Perkin Elmer Envision reader or equivalent).
(§2) Unless indicated otherwise the results are obtained after incubation for 20 minutes.

Assay [2] has as its target human immuno proteasome (LMP7) (Homo sapiens (Human), UniProt P28062). The experiment in a line: Determination of LMP7 activity (fluorescence intensity assay, Suc-LLVY-AMC). In kind it is biochemical. As for the experimental part: Determination of LMP7 Activity:
Measurement of LMP7 inhibition is performed in 384 well format based on fluorescence intensity assay.
as §1, with “immuno” for “constitutive”, “(0.25” for “(1.25”
as §2

[3] abbreviates: LMP7 versus Beta5, long incubation (120 min).
[4] abbreviates: LMP7 versus Beta5, incubation for 20 minutes.

The structures appear in SMILES notation. Where only a bound is given, the exact number is not on record here.

As for `C=CC(=O)N(C)CC(=O)N[C@@H](Cc1ccc(Cl)c(Cl)c1)B(O)O` [Compound No. 66, [(1R)-2-(3,4-dichlorophenyl)-1-[[2-[methyl(prop-2-enoyl)amino]acetyl]amino]ethyl]boronic Acid], the results for the IC50 in assay [1] (long incubation (120 min)) and in assay [2] (long incubation (120 min)) were > 5000 nM and < 50 nM, respectively. Besides, in assay [2] (setting [3]), the “Selectivity LMP7 vs Beta5” value was “+++++ (Selectivity ≥ 150)”.

For the compound `C=CC(=O)N1c2ccccc2CC1C(=O)N[C@@H](Cc1ccc(C)cc1C)B(O)O` (stereo partly drawn) [Compound No. 8, [(1R)-2-(2,4-dimethylphenyl)-1-[(1-prop-2-enoylindoline-2-carbonyl)amino]ethyl]boronic Acid], the IC50 (in general, the concentration needed to halve the response being measured) in assay [1] (incubation for 20 minutes) is 500 to 5000 nM; in assay [2] (incubation for 20 minutes) it was < 50 nM. In assay [2] (setting [4]), the “Selectivity LMP7 vs Beta5” value is on record as “+++ (70 ≤ 100)”.

Turning to `C=CC(=O)N(C)CC(=O)N[C@@H](Cc1ccsc1)B(O)O` [Compound No. 75, [(1R)-1-[[2-[methyl(prop-2-enoyl)amino]acetyl]amino]-2-(3-thienyl)ethyl]boronic Acid], the IC50 in assay [1] (long incubation (120 min)) was > 5000 nM; in assay [2] (long incubation (120 min)) it was 50 to 500 nM. Further, the “Selectivity LMP7 vs Beta5” value in assay [2] (setting [3]) is on record as “+++++ (Selectivity ≥ 150)”.

Turning to `C#CC(=O)N(CC(=O)N[C@@H](Cc1ccc(C)cc1C)B(O)O)c1ccccc1` [Compound No. 7, [(1R)-2-(2,4-dimethylphenyl)-1-[[2-(N-prop-2-ynoylanilino)acetyl]-amino]ethyl]boronic Acid], the IC50 in assay [1] (incubation for 20 minutes) is 500 to 5000 nM; in assay [2] (incubation for 20 minutes), < 50 nM. Moreover, in assay [2] (setting [4]), the “Selectivity LMP7 vs Beta5” value is on record as “++++ (100 ≤ Selectivity < 150)”.

Consider `CCN(CC(=O)N[C@@H](Cc1ccc(C)cc1C)B(O)O)C(=O)C=C(C)C` [Compound No. 24, [(1R)-2-(2,4-dimethylphenyl)-1-[[2-[ethyl(3-methylbut-2-enoyl)amino]-acetyl]amino]ethyl]boronic Acid], for which the 50% inhibitory concentration (IC50) fell in the range of 500 to 5000 nM in assay [1] (incubation for 20 minutes) and 50 to 500 nM in assay [2] (incubation for 20 minutes). In assay [2] (setting [4]), the “Selectivity LMP7 vs Beta5” value is on record as “++ (50 ≤ Selectivity < 70)”.

Take `C/C=C/C(=O)N(CC)CC(=O)N[C@@H](Cc1ccc(C)cc1C)B(O)O` [Compound No. 23, [(1R)-1-[[2-[[(E)-but-2-enoyl]-ethyl-amino]acetyl]amino]-2-(2,4-dimethylphenyl)ethyl]boronic Acid]: the IC50 in assay [1] (incubation for 20 minutes) was 500 to 5000 nM; in assay [2] (incubation for 20 minutes), < 50 nM. The “Selectivity LMP7 vs Beta5” value in assay [2] (setting [4]) is “+++ (70 ≤ 100)”.

Consider `C=CC(=O)N(CC)CC(=O)N[C@@H](Cc1ccsc1)B(O)O` [Compound No. 77, [(1R)-1-[[2-[ethyl(prop-2-enoyl)amino]acetyl]amino]-2-(3-thienyl)ethyl]boronic Acid], for which the IC50 in assay [1] (long incubation (120 min)) was > 5000 nM; in assay [2] (long incubation (120 min)) it was < 50 nM. The “Selectivity LMP7 vs Beta5” value in assay [2] (setting [3]) was “+++++ (Selectivity ≥ 150)”.

As for `C=CC(=O)N(CC)CC(=O)N[C@@H](Cc1ccccc1)B(O)O` [Compound No. 37, [(1R)-1-[[2-[ethyl(prop-2-enoyl)amino]acetyl]amino]-2-phenyl-ethyl]boronic Acid], the results for the IC50 in assay [1] (incubation for 20 minutes) and in assay [2] (incubation for 20 minutes) were > 5000 nM and 50 to 500 nM, respectively. For the same compound, in assay [2] (setting [4]), the “Selectivity LMP7 vs Beta5” value is recorded as “+++ (70 ≤ 100)”.

In the case of `C=CC(=O)N(CC(=O)N[C@@H](Cc1ccc(C)c(C)c1)B(O)O)c1ccccc1` [Compound No. 17, [(1R)-2-(3,4-dimethylphenyl)-1-[[2-(N-prop-2-enoylanilino)acetyl]-amino]ethyl]boronic Acid], the IC50 was 500 to 5000 nM in assay [1] (incubation for 20 minutes) and < 50 nM in assay [2] (incubation for 20 minutes). Besides, the “Selectivity LMP7 vs Beta5” value in assay [2] (setting [4]) is given as “+++ (70 ≤ 100)”.

For the compound `C=CC(=O)N(CC(=O)N[C@@H](Cc1ccc(C)c(C)c1)B(O)O)C1CC1` [Compound No. 71, [(1R)-1-[[2-[cyclopropyl(prop-2-enoyl)amino]acetyl]amino]-2-(3,4-dimethylphenyl)ethyl]boronic Acid], the IC50 in assay [1] (long incubation (120 min)) is > 5000 nM; in assay [2] (long incubation (120 min)), < 50 nM. For the same compound, in assay [2] (setting [3]), the “Selectivity LMP7 vs Beta5” value was “+++++ (Selectivity ≥ 150)”.

As to `C=CC(=O)N(CC(=O)N[C@@H](Cc1ccc(C)cc1C)B(O)O)c1ccccc1` [Compound No. 26, [(1R)-2-(2,4-dimethylphenyl)-1-[[2-(N-prop-2-enoylanilino)acetyl]-amino]ethyl]boronic Acid], the IC50 in assay [1] (incubation for 20 minutes) is 500 to 5000 nM; in assay [2] (incubation for 20 minutes), < 50 nM. The “Selectivity LMP7 vs Beta5” value in assay [2] (setting [4]) was “+++++ (Selectivity ≥ 150)”.

For the compound `C=CC(=O)N(c1ccccc1)[C@H](C)C(=O)N[C@@H](Cc1ccc(C)c(C)c1)B(O)O` [Compound No. 47, [(1R)-2-(3,4-dimethylphenyl)-1-[[(2R)-2-(N-prop-2-enoylanilino)propanoyl]amino]ethyl]boronic Acid], the IC50 in assay [1] (long incubation (120 min)) is > 5000 nM; in assay [2] (long incubation (120 min)), 50 to 500 nM. Also, the “Selectivity LMP7 vs Beta5” value in assay [2] (setting [3]) is listed as “+++++ (Selectivity ≥ 150)”.

In the case of `C=CC(=O)N(CCC)CC(=O)N[C@@H](Cc1ccc(C)c(C)c1)B(O)O` [Compound No. 5, [(1R)-2-(3,4-dimethylphenyl)-1-[[2-[prop-2-enoyl(propyl)amino]-acetyl]amino]ethyl]boronic Acid], the figures for the IC50 in assay [1] (incubation for 20 minutes) and in assay [2] (incubation for 20 minutes) were > 5000 nM and 50 to 500 nM, respectively. Moreover, the “Selectivity LMP7 vs Beta5” value in assay [2] (setting [4]) is recorded as “++++ (100 ≤ Selectivity < 150)”.

Take `C=CC(=O)N(CC(=O)N[C@@H](Cc1ccc(C)cc1C)B(O)O)c1ccc(OC(F)(F)F)cc1` [Compound No. 9, [(1R)-2-(2,4-dimethylphenyl)-1-[[2-[N-prop-2-enoyl-4-(trifluoromethoxy)anilino]acetyl]amino]ethyl]boronic Acid]: the IC50 is 500 to 5000 nM in assay [1] (incubation for 20 minutes) and < 50 nM in assay [2] (incubation for 20 minutes). Besides, the “Selectivity LMP7 vs Beta5” value in assay [2] (setting [4]) is “+++ (70 ≤ 100)”.

On to `C=CC(=O)N(C)CC(=O)N[C@@H](Cc1ccc(Cl)cc1Cl)B(O)O` [Compound No. 85, [(1R)-2-(2,4-dichlorophenyl)-1-[[2-[methyl(prop-2-enoyl)amino]acetyl]amino]ethyl]boronic Acid], for which the IC50 is > 5000 nM in assay [1] (long incubation (120 min)) and < 50 nM in assay [2] (long incubation (120 min)). Moreover, the “Selectivity LMP7 vs Beta5” value in assay [2] (setting [3]) is listed as “+++++ (Selectivity ≥ 150)”.

As to `C=CC(=O)N(CC(=O)N[C@@H](Cc1ccc(C)c(C)c1)B(O)O)CC(F)F` [Compound No. 83, [(1R)-1-[[2-[2,2-difluoroethyl(prop-2-enoyl)amino]acetyl]-amino]-2-(3,4-dimethylphenyl)ethyl]boronic Acid], the concentration for half-maximal inhibition (IC50) in assay [1] (long incubation (120 min)) was > 5000 nM; in assay [2] (long incubation (120 min)), 50 to 500 nM. For the same compound, the “Selectivity LMP7 vs Beta5” value in assay [2] (setting [3]) was “+++++ (Selectivity ≥ 150)”.

Consider `C=CC(=O)N(C)CC(=O)N[C@@H](Cc1ccc(C)c(C)c1)B(O)O` [Compound No. 16, [(1R)-2-(3,4-dimethylphenyl)-1-[[2-[methyl(prop-2-enoyl)amino]-acetyl]amino]ethyl]boronic Acid], for which the IC50 in assay [1] (incubation for 20 minutes) was > 5000 nM; in assay [2] (incubation for 20 minutes) it was < 50 nM. For the same compound, the “Selectivity LMP7 vs Beta5” value in assay [2] (setting [4]) is given as “+++++ (Selectivity ≥ 150)”.

Regarding `C=CC(=O)N(CC)CC(=O)N[C@@H](Cc1coc2ccccc12)B(O)O` [Compound No. 36, [(1R)-2-(benzofuran-3-yl)-1-[[2-[ethyl(prop-2-enoyl)amino]acetyl]-amino]ethyl]boronic Acid], the IC50 in assay [1] (incubation for 20 minutes) was 50 to 500 nM; in assay [2] (incubation for 20 minutes), < 50 nM. Moreover, the “Selectivity LMP7 vs Beta5” value in assay [2] (setting [4]) is “+++ (70 ≤ 100)”.

Consider `C=CC(=O)N(CC#N)CC(=O)N[C@@H](Cc1ccc(C)cc1C)B(O)O` [Compound No. 56, [(1R)-1-[[2-[cyanomethyl(prop-2-enoyl)amino]acetyl]-amino]-2-(2,4-dimethylphenyl)ethyl]boronic Acid], for which the IC50 in assay [1] (long incubation (120 min)) is > 5000 nM; in assay [2] (long incubation (120 min)), < 50 nM. For the same compound, in assay [2] (setting [3]), the “Selectivity LMP7 vs Beta5” value is reported as “+++++ (Selectivity ≥ 150)”.

On to `C=CC(=O)N1CCC[C@@H]1C(=O)N[C@@H](Cc1ccc(Cl)cc1Cl)B(O)O` [Compound No. 54, [(1R)-2-(2,4-dichlorophenyl)-1-[[(2R)-1-prop-2-enoylpyrrolidine-2-carbonyl]amino]ethyl]boronic Acid], for which the half-maximal inhibitory concentration (IC50) in assay [1] (long incubation (120 min)) is > 5000 nM; in assay [2] (long incubation (120 min)), 500 to 5000 nM. The “Selectivity LMP7 vs Beta5” value in assay [2] (setting [3]) is reported as “++ (50 ≤ Selectivity < 70)”.

For the compound `C=CC(=O)N(CC)CC(=O)N[C@@H](Cc1ccc(Cl)c(Cl)c1)B(O)O` [Compound No. 65, [(1R)-2-(3,4-dichlorophenyl)-1-[[2-[ethyl(prop-2-enoyl)amino]acetyl]amino]ethyl]boronic Acid], the IC50 in assay [1] (long incubation (120 min)) was > 5000 nM; in assay [2] (long incubation (120 min)) it was < 50 nM. Moreover, the “Selectivity LMP7 vs Beta5” value in assay [2] (setting [3]) was “+++++ (Selectivity ≥ 150)”.

For the compound `C=CC(=O)N(CC(=O)N[C@@H](Cc1ccc(C)c(C)c1)B(O)O)CC(F)(F)F` [Compound No. 61, [(1R)-2-(3,4-dimethylphenyl)-1-[[2-[prop-2-enoyl(2,2,2-trifluoroethyl)amino]acetyl]amino]ethyl]boronic Acid], the IC50 was > 5000 nM in assay [1] (long incubation (120 min)) and < 50 nM in assay [2] (long incubation (120 min)). Besides, the “Selectivity LMP7 vs Beta5” value in assay [2] (setting [3]) is “+++++ (Selectivity ≥ 150)”.

Consider `C=CC(=O)N(CC)CC(=O)N[C@@H](Cc1ccc(C)c(C)c1C)B(O)O` [Compound No. 72, [(1R)-1-[[2-[ethyl(prop-2-enoyl)amino]acetyl]amino]-2-(2,3,4-trimethylphenyl)ethyl]boronic Acid], for which the IC50 in assay [1] (long incubation (120 min)) was > 5000 nM; in assay [2] (long incubation (120 min)) it was 50 to 500 nM. For the same compound, in assay [2] (setting [3]), the “Selectivity LMP7 vs Beta5” value is recorded as “+++++ (Selectivity ≥ 150)”.
